SMILES strings stand for the structures. Activity calls are given as the source filed them. Some results are limits rather than exact numbers.

Assay [1] deals with T1, Carboxy-terminal domain RNA polymerase II polypeptide A small phosphatase 1 (Homo sapiens, UniProt Q9GZU7).
T1 sequence (Q9GZU7 whole entry): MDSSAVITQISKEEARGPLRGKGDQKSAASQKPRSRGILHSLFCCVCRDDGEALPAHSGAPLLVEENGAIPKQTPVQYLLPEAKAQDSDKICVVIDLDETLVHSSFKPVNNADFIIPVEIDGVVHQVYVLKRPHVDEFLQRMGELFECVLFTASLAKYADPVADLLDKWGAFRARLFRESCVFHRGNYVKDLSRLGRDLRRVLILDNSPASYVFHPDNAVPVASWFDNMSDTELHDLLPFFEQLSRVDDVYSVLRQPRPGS
Briefly: CTDSP1 inhibitors, concentration-response, biochemical, absorbance readout, ultra-high-throughput screen actives (AID 540297). The assay is classed as functional.

Assay [2] in a line: Luminescence Cell-Based Dose Response HTS to Identify Activators of Luciferase Translation or Activity in H4 […] Cells. [Related pubchem assays: 1829 (Project Summary), 1814 (Primary HTS)]. The assay is classed as functional.
The nature of assay [3]: Luminescence Cell-Based Dose Confirmation HTS to Identify Activators of 5'UTR Stem-Loop Driven Alpha-Synuclein mRNA Translation in H4 Neuroglioblastoma Cells. [Related pubchem assays: 1829 (Project Summary), 1814 (Primary HTS)]. The class given is functional.
A further assay deals with H4. Kind of assay: Luminescence Cell-Based Dose Response HTS to Identify Activators of 5'UTR Stem-Loop Driven Prion Protein mRNA Translation in H4 Neuroglioblastoma Cells. [Related pubchem assays: 1829 (Project Summary), 1814 (Primary HTS)]. The class given is functional. The conditions noted are these: Homo sapiens.
Assay [4] can be described thus: viability of PTEN-deleted HCT116 cells – cell-based, HCT116 PTEN knockout, dose response (AID 1047).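 Further: HCT116 colon tumor cells with PTEN knocked out; cells exposed to compound for 60 hours before readout; potency for loss of cell viability measured by luminescence.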 The class given is functional.
Assay [5] in a line: viability of HCT116 lacking mutant beta-catenin – cell-based, human colon tumor, dose response (AID 1045).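 Further: HCT116 colon tumor cells with beta catenin knocked out; cells exposed to compound for 60 hours.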 The assay is classed as functional.
The nature of assay [6]: NIH-3T3 fibroblast cytotoxicity, dose response, cytotoxicity control, cell-based, fluorescence, Alamar Blue, secondary assay (AID 2327).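 Further: NIH-3T3 mouse fibroblasts cultured with fluconazole at 8 µg/mL.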 The assay is classed as functional. A general note: Alamar Blue is a resazurin reagent that responds to reducing activity.
Assay [7] is described as follows: fluconazole-exposed Candida albicans growth modulators – fluorescence, retest, confirmation (AID 2467). The assay is classed as functional, cell-based.
A short description of assay [8]: blockers of HIV-1 envelope-mediated cell-cell fusion – cherry-pick, dose response (AID 652057). The assay is classed as functional, cell-based.
Assay [9] is described as follows: HIV-1 AD8 envelope cell-cell fusion blockers – cherry-pick, dose response (AID 652062).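 Further: luciferase signal from cell-cell fusion driven by HIV-1 clade B AD8 Env; potency is for inhibitors of fusion seen as a drop in luminescence.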 The class given is functional, cell-based.
A short description of assay [10]: off-target signal loss in HeLa-CEM21 co-culture – HeLa F-luc CTL cells, cherry-picked, counter-screen for HIV-1 Env fusion inhibitor project, dose response (AID 652040).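 Further: potency for signal decrease marking cytotoxic or nonspecific inhibition.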 The class given is functional, cell-based. (The purpose of a counterscreen is to sort out artefacts and off-target activity.)
Assay [11] in a line: blockers of HIV-1 ZM109 envelope-driven cell-cell fusion – HeLa effector, CEM target cells, luciferase, cherry-pick, dose response (AID 652058).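 Further: luciferase signal from HIV-1 Env mediated cell-cell fusion of effector and target cells.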 The class given is functional, cell-based.
The target in assay [12] is T2, Corticotropin-releasing factor receptor 2/Corticotropin-releasing factor-binding protein (Homo sapiens, UniProt P24387+Q13324).
T2 sequence (Q13324 whole entry): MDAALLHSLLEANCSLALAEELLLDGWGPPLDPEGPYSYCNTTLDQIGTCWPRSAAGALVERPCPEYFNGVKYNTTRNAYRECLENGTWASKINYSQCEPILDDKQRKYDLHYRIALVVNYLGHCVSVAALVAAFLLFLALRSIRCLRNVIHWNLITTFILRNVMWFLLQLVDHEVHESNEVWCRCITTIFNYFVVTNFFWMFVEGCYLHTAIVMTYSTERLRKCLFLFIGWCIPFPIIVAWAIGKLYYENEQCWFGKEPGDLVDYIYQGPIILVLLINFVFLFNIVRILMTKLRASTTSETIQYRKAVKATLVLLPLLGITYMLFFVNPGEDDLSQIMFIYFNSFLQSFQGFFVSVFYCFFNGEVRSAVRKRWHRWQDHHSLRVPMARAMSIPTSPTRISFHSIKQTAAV
T2 sequence (P24387 whole entry): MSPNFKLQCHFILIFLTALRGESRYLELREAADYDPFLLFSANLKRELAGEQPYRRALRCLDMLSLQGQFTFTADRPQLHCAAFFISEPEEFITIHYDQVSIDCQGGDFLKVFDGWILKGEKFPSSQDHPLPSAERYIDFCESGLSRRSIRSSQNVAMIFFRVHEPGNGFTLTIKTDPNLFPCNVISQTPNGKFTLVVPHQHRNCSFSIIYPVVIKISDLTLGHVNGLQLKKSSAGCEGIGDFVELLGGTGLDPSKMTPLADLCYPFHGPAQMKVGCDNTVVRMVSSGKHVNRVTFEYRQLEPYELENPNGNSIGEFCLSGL
Kind of assay: Dose Response confirmation of uHTS hits for small molecule antagonists of the CRF-binding protein and CRF-R2 receptor complex. The assay is classed as functional. The conditions noted are these: read-out: IC50_Mean.

In assay [13] the target is T2, Corticotropin-releasing factor receptor 2/Corticotropin-releasing factor-binding protein. Kind of assay: activators of CRF receptor 2 with binding protein – uHTS hits, confirmation (AID 602473). The assay is classed as functional. The following applies: read-out: EC50_Mean.
The subject of the next assay is H9c2. Briefly: cells. The class given is functional, cell-based. The conditions noted are these: Rattus norvegicus, H9c2, Myocardium.
Assay [14] can be described thus: reduction of Shn3 3'UTR-driven luciferase in osteoblasts – cell-based, Clone20 osteoblasts, firefly luciferase, cherry-picked, dose response (AID 624132).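 Further: firefly luciferase luminescence from reporter carrying the Shn3 3'UTR in osteoblasts.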 The class given is functional.
The nature of assay [15]: Luminescence Cell-Based Dose Retest to Confirm Inhibitors of Cancer Stem Cells. [Related pubchem assays (depositor defined):AID2717, AID2721]. The following applies: Homo sapiens. The class given is functional.
Assay [16] in a line: Trypanosoma cruzi growth suppression in host cells – NIH3T3 host cells, beta-gal luminescence, confirmation (AID 2044).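 Further: intracellular parasites grown in NIH/3T3 mouse fibroblasts as host cells; luminescent beta-galactosidase reporter signal from transgenic T. cruzi replicating inside host cells; inhibitors lower the luminescence signal.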 The class given is functional, cell-based.
A short description of assay [17]: NIH3T3 cell viability loss – ATP luminescence, mouse fibroblasts, counter-screen, dose response (AID 2010).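 Further: cells exposed to compound for about 90 hours before reading.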 The class given is functional, cell-based.
The nature of assay [18]: P. falciparum Dd2 growth inhibitors, dose response, SYBR Green, cherry-picked samples (AID 1159567). The assay is classed as functional, cell-based.

For `Cc1ccn2c(=O)nc(SCC(=O)NCc3ccc4c(c3)OCO4)nc2c1`, in assay [1], the IC50 is 10.5 µM (active).

Turning to `COc1ccc(NC(=O)Nc2cccc3cccnc23)cc1`, the EC50 was 5.48 µM (active) in [2], 21.7 µM (active) in assay [3] and 21.2 µM (active) in the assay on H4.

For the compound `O=C1C(CSCc2ccccc2)NC(=S)N1c1ccccc1` (centres undefined), the EC50 (in assay [2]; in assay [3]; with H4) was > 120 µM (not active) each time.

For `CCOc1ccc(C2CC(c3ccc(CC)cc3)Nc3nc(N)nn32)cc1` (centres undefined), the EC50 is 10.5 µM (active) in assay [2], > 120 µM (not active) in [3] and 19.7 µM (active) in the assay on H4.

Take `CC(=O)Nc1ccccc1N(CC(O)Cn1c2ccccc2c2ccccc21)S(=O)(=O)c1ccc(C)cc1` (centres undefined): the EC50 in [4] was 13.5 µM (active); in [5], 17.1 µM (active).

As to `N=c1c2c(ncn1CCN1CCOCC1)Oc1ccc3ccccc3c1C2c1ccccc1` (centres undefined), the EC50 was 16.5 µM (active) in assay [4] and 15.3 µM (active) in [5].

With `Sc1nnc(-c2ccc(Cl)cc2Cl)n1-c1ccccc1`, the EC50 in assay [2] was 56.4 µM (active); in assay [3], 15.5 µM (active); in the assay with H4 it was 14.9 µM (active).

In the case of `CCOC(=O)c1cc(O)n2c(n1)nc1ccccc12`, the values for the EC50 (in assay [2]; in [3]; in the assay on H4) were 11.4 µM (active), 15.8 µM (active) and 20.4 µM (active), respectively.

In the case of `COc1ccc(C2Nc3ccccc3C(=O)N2O)cc1OC` (centres undefined), the EC50 was > 150 µM (inactive) in assay [6] and > 38 µM (not active) in [7].

On to `CCc1ccc(-c2cn3nc(C)c(C)nc3n2)cc1`, for which the half-maximal activity concentration (AC50) in assay [8] was 3.94 µM (active); in assay [9] it was 6.35 µM (active); in assay [10], 11 µM (active); in [11], 29.3 µM (active).

As to `CN1C(c2ccc(F)cc2)=CS/C1=C(/C#N)c1nnc(N2CCOCC2)n1-c1ccccc1`, the EC50 in assay [2] is > 120 µM (not active); in [3], > 120 µM (not active); in assay [13], > 53 µM (inactive); in the assay with H4 it was > 120 µM (not active). The IC50 in assay [12] is > 47.1 µM (inactive).

As for `Cc1ccc(Cn2ncn(-c3ccccc3)c2=O)cc1`, the EC50 was 24.1 µM (active) in [2], 14.4 µM (active) in assay [3] and 7.14 µM (active) with H4.

As for `Cc1cccc(C(=O)NC2CCN(C(=O)NCc3ccccc3)CC2)c1`, in assay [1], the IC50 was 12.1 µM (active).

In the case of `C=CCn1c(=N)n(CC(=O)c2cccc([N+](=O)[O-])c2)c2ccccc21`, the EC50 was 134 µM (active) in [6] and > 38 µM (not active) in [7].

With `CCCc1cc(=O)oc2cc(OCC(=O)NC(Cc3c[nH]c4ccc(O)cc34)C(=O)O)c(Cl)cc12` (centres undefined), the IC50 in assay [1] was 32.7 µM (active).

For `O=C(CN1C(=O)S/C(=C\c2ccc(O)c([N+](=O)[O-])c2)C1=O)Nc1ccc(N2CCOCC2)cc1`, in [1], the IC50 is 2.65 µM (active).

With `Cc1ccc(Nc2nnc(C3C(=O)N(C)C4(C)CC3c3cc(Br)ccc3O4)s2)cc1` (centres undefined), the figures for the EC50 in assay [6] and in assay [7] were 19.8 µM (active) and 4.45 µM (active), respectively.

Consider `CC1=CC(C)(C)n2c(O)c(C3=NC(=S)NC3=O)c3cc(OC(=O)c4cccc5ccccc45)cc1c32`, for which the EC50 in [4] was 19.6 µM (active); in assay [5], 24 µM (active).

As for `Cc1ccc2nc(O)c(CN(Cc3ccco3)S(=O)(=O)c3c(C)ccc4nsnc34)cc2c1`, in the assay on H9c2, the IC50 was 8.78 µM (active). Further, the EC50 in assay [4] was 13.2 µM (active); in assay [5], 14.8 µM (active).

Consider `CC(C)(COC(=O)C(c1ccccc1)c1ccccc1)CN1CCOCC1`, for which the AC50 is 4.96 µM (active) in assay [8], 1.83 µM (active) in assay [9], 4.01 µM (active) in assay [10] and 2.42 µM (active) in [11].

In the case of `CC(=O)OCC1=C(C(=O)OC(C)(C)C)N2C(=O)[C@@H](NC(=O)Cc3ccccc3)[C@H]2SC1`, the IC50 in assay [1] was 8.61 µM (active).

In the case of `CCOC(=O)C1(C)Oc2ccccc2C(C(=O)OC)=C1C(=O)OC` (centres undefined), the IC50 in assay [1] is 23.6 µM (active).

Take `O=C(COC(=O)c1ccc(Br)o1)NCc1ccco1`: the IC50 in assay [1] was 9.79 µM (active).

Take `O=C(CCCOc1ccc(Cl)cc1Cl)Nc1cc(S(=O)(=O)N2CCOCC2)ccc1N1CCOCC1`: the AC50 in [8] was 3.23 µM (active); in [9], 15.8 µM (active); in assay [10] it was 6.33 µM (active); in [11], 11.8 µM (active).

In the case of `NS(=O)(=O)c1ccc(CNC(=S)NC(=O)c2ccco2)cc1`, the AC50 in assay [14] was 22.9 µM (active).

Turning to `Cc1cccc(OCCNc2cc(N3CCN(C)CC3)ccc2[N+](=O)[O-])c1`, the AC50 in assay [15] was 1.47 µM (active). For the same compound, the EC50 in assay [16] is 0.495 µM (active); in assay [4], 19.8 µM (active); in assay [5] it was 86.1 µM (active); in assay [17], > 60 µM (not active).

In the case of `O=C1C2C3C=CC(C4CC34)C2C(=O)N1/N=C/c1c[nH]c2ccccc12` (centres undefined), the values for the EC50 (in assay [2]; in assay [3]; in the assay with H4) were > 120 µM (not active), 11 µM (active) and 14.9 µM (active), respectively.

For the compound `CCCN(C)C[C@@H]1Oc2cc(C#Cc3ccncc3)ccc2S(=O)(=O)N([C@H](C)CO)C[C@@H]1C`, the AC50 in assay [18] is 6.76 µM (active).

With `O=C(C1CCC1)N1CC(=O)N2[C@H](CO)[C@@H](c3ccc(C#CCc4ccccc4)cc3)[C@H]2C1`, the AC50 in [18] is 9.44 µM (active).

Regarding `C/C=C/c1ccc([C@H]2[C@@H](CO)N(C(=O)C3CCCC3)[C@H]2CNCCC)cc1`, in assay [18], the AC50 is 4.85 µM (active).

In general, AC50 refers to the concentration giving half of the maximal activity seen.

The record behind these values is ChEMBL document CHEMBL1201862, “PubChem BioAssay data set” (2004).
